# Results reported in PMC12165043, “Neophytadiene, a Plant Specialized Metabolite, Mediates the Virus‐Vector‐Plant Tripartite Interactions” (Advanced Science, 2025).
# “And” between values parts separate entries of the source, which are not always exact repeats. Equal values may be shown once.
# Columns and labels:
# [1] = tested on: Trialeurode vaporariorum; set-up: method as in PMID 35244166; conditions: ref [47]; cited from earlier work
# [2] = molecular target: T1, BtOBP2 (Bemisia tabaci, UniProt A0A097BTY7); assay: Fluorescence binding of the probe 1-NPN to recombinant BtOBP2; conditions: recombinant BtOBP2 2 µM, Scatchard analysis; read-out: binding constant (Kd) of 1-NPN to BtOBP2
# T1 sequence (A0A097BTY7 23-247): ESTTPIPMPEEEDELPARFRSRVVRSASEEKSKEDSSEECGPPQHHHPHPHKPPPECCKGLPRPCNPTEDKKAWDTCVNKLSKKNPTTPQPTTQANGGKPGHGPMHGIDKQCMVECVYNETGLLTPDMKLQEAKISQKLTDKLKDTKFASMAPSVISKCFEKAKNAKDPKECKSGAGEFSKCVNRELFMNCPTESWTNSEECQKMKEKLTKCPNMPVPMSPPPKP
# Description: The specific primers for BtOBP2 were designed using Primer 5 software to amplify the coding sequence according to the Phanta Max Super‐Fidelity DNA Polymerase protocol. Target DNA fragments were purified and ligated into the pEASY‐Blunt cloning vector, and positive colonies were identified by PCR and sequenced. The cloned plasmid was ligated into the pET28a vector (Invitrogen, Waltham USA) following digestion with BamHI and SalI. The resulting construct was transformed into Rosetta (DE3) Escherichia coli competent cells. […] The target protein was verified by 10% SDS‐PAGE, and its concentration was determined with a BCA protein assay kit. […] The target protein was subjected to Coomassie blue staining and western blot validation through 10% SDS‐PAGE using anti His‐Tag antibody, and its concentration was determined using a BCA protein assay kit. […]
# The binding affinity of BtOBP2 to the fluorescent probe N‐phenyl‐1‐naphthyl‐amine (1‐NPN1) was determined using a FL7000 fluorescence spectrophotometer (Hitachi, Tokyo Japan). […] The optimal excitation and emission wavelengths of the recombinant protein BtOBP2 were determined, and the 1‐NPN/BtOBP2 mixture was excited at 220 nm with emission spectra recorded from 300 to 500 nm. The binding constants (Kd) of BtOBP2 to 1‐NPN were calculated by Scatchard analysis using Prism 5 software. […]
# [3] = tested on: TYLCV; set-up: method as in PMID 36086899; conditions: ref [48]; cited from earlier work
# [4] = molecular target: T1, BtOBP2; assay: Fluorescence competitive binding assay (displacement of 1-NPN from BtOBP2); conditions: mean ± SEM; for IC50: BtOBP2 2 µM, ligand 2 to 20 µM, read-out: IC50, ligand concentration displacing 50% of the fluorescence intensity of the BtOBP2/1-NPN complex; for Ki: Ki = [IC50]/(1 + [1-NPN]/K1-NPN), read-out: Ki, dissociation constant
# Description: The specific primers for BtOBP2 were designed using Primer 5 software to amplify the coding sequence according to the Phanta Max Super‐Fidelity DNA Polymerase protocol. Target DNA fragments were purified and ligated into the pEASY‐Blunt cloning vector, and positive colonies were identified by PCR and sequenced. The cloned plasmid was ligated into the pET28a vector (Invitrogen, Waltham USA) following digestion with BamHI and SalI. The resulting construct was transformed into Rosetta (DE3) Escherichia coli competent cells. When the OD600 of the recombinant BtOBP2 reached 0.6 to 0.8, induction was initiated by adding isopropyl‐β‐D‐1‐thiogalactopyranoside (IPTG) (1 mM) at 16 °C for 16 h, followed by purification using the Ni‐NTA purification system.^[ [59] ^] The target protein was verified by 10% SDS‐PAGE, and its concentration was determined with a BCA protein assay kit. The recombinant purified protein was stored at −80 °C until use. The target protein was subjected to Coomassie blue staining and western blot validation through 10% SDS‐PAGE using anti His‐Tag antibody, and its concentration was determined using a BCA protein assay kit. The purified recombinant protein was stored at −80 °C.
# The binding affinity of BtOBP2 to the fluorescent probe N‐phenyl‐1‐naphthyl‐amine (1‐NPN1) was determined using a FL7000 fluorescence spectrophotometer (Hitachi, Tokyo Japan). Ligands and 1‐NPN were dissolved in HPLC‐grade methanol to a concentration of 1 mM, and then titrated with BtOBP2 (2 µM) to final concentrations ranging from 2 to 20 µM.^[ [60] ^] The optimal excitation and emission wavelengths of the recombinant protein BtOBP2 were determined, and the 1‐NPN/BtOBP2 mixture was excited at 220 nm with emission spectra recorded from 300 to 500 nm. The binding constants (Kd) of BtOBP2 to 1‐NPN were calculated by Scatchard analysis using Prism 5 software. The IC50 represents the concentration at which 50% of the probe was displaced by the ligand. The Ki values were calculated according to the following equation: Ki = [IC50]/(1 + [1‐NPN]/K1‐NPN), where [1‐NPN] is the free concentration of 1‐NPN, and K1‐NPN is the Kd of the 1‐NPN/BtOBP2 complex.^[ [61] ^]
# [5] = tested on: Bemisia tabaci whiteflies; assay: Y-tube olfactory choice assay, volatile standard versus solvent control; type: in vivo; conditions: for Whitefly preference for plant volatiles versus control (solvent only): number of whiteflies in the volatile arm: Fig 1F raw data, individual replicates (n = 9), 100 whiteflies released, counted for 20 min; for impact of volatile on whitefly preference: Y-tube, volatile standard versus solvent control, n = 9, result in words
# Method: Y‐tube preference assays were conducted as per Shi et al.^[ [51] ^] with an air flow of 100 mL min^−1. A volatile standard (Sigma Aldrich, USA) and control (solvent) were placed in glass containers at either end of the Y‐tube and 100 whiteflies were released at the Y‐tube base. The number of whiteflies moving more than 5 cm into the Y‐tube arm and remaining there for at least 15 s was counted for 20 min. There were nine replicates per volatile for each of the eight volatile compounds.
# [6] = tested on: Bemisia tabaci whiteflies; assay: Whole-plant preference test, OELhca4 tomato plants sprayed with neophytadiene or water; type: in vivo
# Method: Tests were conducted as per Shi et al.^[ [49] ^] with slight modifications. ToCV‐infected or control (mock‐inoculated) tomato plants were used for preference tests in screened cages. A second set of preference tests was also conducted using OELhca4 (Lhca4 overexpressed) tomato plants sprayed either with neophytadiene (3 µg g^−1 in water) or water only (control). Each cage contained two plants placed 40 cm apart. Under dim light, about 100 whiteflies that had been starved for 2 h were released above the center of the two plants and the whiteflies on each plant counted after 48 h. Each of the two preference tests (ToCV‐infected versus uninfected plants; OELhca4 plants sprayed with either neophytadiene or water) was replicated nine times.
# [7] = tested on: BtOBP1-8 genes; assay: Transcriptional response of BtOBP1-8 to neophytadiene (qRT-PCR); type: in vivo, Bemisia tabaci
# Method: RNA was extracted using trizol reagent (Invitrogen, Waltham USA) and dissolved in double‐deionized water; cDNA was synthesized from total RNA (1 µg) using HiScript 1st Strand cDNA Synthesis kit (Vazyme, Nanjing China). Real‐time qPCR was conducted using the MonAmp SYBR Green qPCR Mix (Thermofisher, Waltham USA). Actin and UBI were selected as the housekeeping genes (Table S1, Supporting Information). Each experiment was repeated at least three times and relative gene expression levels calculated for analysis using the 2^−∆∆Ct method.
# To investigate the expression profiles of BtOBP1‐8 genes in B. tabaci under neophytadiene treatment, the following experiment was performed. Tomato plants with an identical growth cycle were selected as the treatment group (sprayed with 3 µg g^−1 neophytadiene) and the control group (treated with water only). The treated plants were then placed in a 10 L hermetic container. Once the volatilization reached equilibrium, 500 pairs of adults were introduced into the closed container and fumigated under airtight conditions. Subsequently, the whiteflies were sampled at distinct time points (0, 24, 48, 72, 96 h) respectively for the determination of expression levels.
# [8] = tested on: whiteflies; set-up: method as in PMID 31842757; conditions: ref [18]; cited from earlier work
# [9] = tested on: Bemisia tabaci whiteflies; assay: Whitefly preference for neophytadiene after RNA interference (dsGFP, dsBtOBP2, dsOBP3); conditions: for preference (whiteflies choosing Neophytadiene): Neophytadiene versus CK, single replicates; for preference (whiteflies choosing Neophytadiene) / preference (whiteflies choosing Neophytadiene), mean: Fig 7D; for preference (whiteflies choosing Neophytadiene), mean: unlabelled last row = mean of the 9 replicates
compound,measurement,setting,value
"CC12CCC(CC1)C(C)(C)O2 [1, 8‐cineole]",effect on settling of whitefly on an otherwise-preferred tomato cultivar,[1],repelled
"c1ccc(Nc2cccc3ccccc23)cc1 [1‐NPN, N‐Phenyl‐1‐naphthylamine]",Kd,[2],2.94 ± 0.08 µM
CC/C=C\CCO [(Z)‐3‐hexenol],effect on tomato defense against infection by whitefly-transmitted TYLCV,[3],improves tomato defense
C=CC(=C)CCCC(C)CCCC(C)CCCC(C)C (stereo not shown) [Neophytadiene],IC50,[4],7.95 ± 0.45 µM
same,Whitefly preference for plant volatiles versus control (solvent only): number of whiteflies in the volatile arm,[5],86 and 89 and 65 and 80 and 52 and 100 and 48
same,impact of volatile on whitefly preference,[5],attracted B. tabaci
same,preference (whiteflies on plant),"[6]; OELhca4+Neophytadiene versus OELhca4, Fig 5J, single replicates",80 and 70 and 78 and 72 and 60 and 66 and 76 and 73
same,Whitefly preference for neophytadiene-sprayed versus water-sprayed OELhca4 plants,"[6]; neophytadiene 3 µg g^−1 in water, whiteflies counted after 48 h, n = 9",attracted more whiteflies
same,OBP1 relative expression,"[7]; 24h, Fig 7A",1.5096 and 1.0333 and 1.7792
same,OBP2 relative expression,"[7]; 24h, Fig 7A",2.314 and 1.938 and 1.255
same,OBP3 relative expression,"[7]; 24h, Fig 7A",2.295 and 2.274 and 2.135
same,OBP4 relative expression,"[7]; 24h, Fig 7A",1.915 and 1.067 and 1.378
same,OBP5 relative expression,"[7]; 24h, Fig 7A",0.9141 and 1.109 and 1.357
same,OBP7 relative expression,"[7]; 24h, Fig 7A",0.4368 and 0.5508 and 0.2972
same,OBP1 relative expression,"[7]; 48h, Fig 7A",0.9445 and 0.6245 and 1.003
same,OBP2 relative expression,"[7]; 48h, Fig 7A",3.877 and 2.855 and 4.158
same,OBP3 relative expression,"[7]; 48h, Fig 7A",2.98 and 1.807 and 1.705
same,OBP4 relative expression,"[7]; 48h, Fig 7A",1.105 and 0.8073 and 0.7508
same,OBP7 relative expression,"[7]; 48h, Fig 7A",0.7647 and 0.5685 and 0.6675
same,OBP4 relative expression,"[7]; 72h, Fig 7A",0.7926 and 1.238 and 0.8444
same,OBP6 relative expression,"[7]; 72h, Fig 7A",0.6207 and 0.9359 and 1.164
same,OBP3 relative expression,"[7]; 96h, Fig 7A",2.791 and 2.514 and 4.498
same,OBP4 relative expression,"[7]; 96h, Fig 7A",1.221 and 0.8392 and 1.362
same,OBP6 relative expression,"[7]; 96h, Fig 7A",0.4452 and 0.8016 and 0.4814
same,OBP7 relative expression,"[7]; 96h, Fig 7A",0.7369 and 0.9206 and 0.9224
same,OBP8 relative expression,"[7]; 96h, Fig 7A",0.9529 and 0.9384 and 0.8486
same,relative gene expression of BtOBP1-8 following neophytadiene exposure,"[7]; continuous release for 96 h, measured every 24 h","Only two genes, BtOBP2 and BtOBP3, increased their expression over time"
same,attraction of whiteflies,[8],highly attractive to whiteflies
same,preference for neophytadiene of BtOBP2-silenced (dsOBP2) whiteflies,"[9]; after RNA interference of BtOBP2, n = 9",no preference
same,preference for neophytadiene of BtOBP3-silenced (dsOBP3) whiteflies,"[9]; after RNA interference of BtOBP3, n = 9",still exhibited preference
same,preference (whiteflies choosing Neophytadiene),[9]; dsGFP-treated whiteflies,95 and 86 and 80 and 93 and 85 and 88 and 79 and 90
same,"preference (whiteflies choosing Neophytadiene), mean",[9]; dsGFP-treated whiteflies,87.6667
same,preference (whiteflies choosing Neophytadiene),[9]; dsOBP2-treated whiteflies,36 and 41 and 48 and 46 and 42 and 58 and 59 and 45
same,"preference (whiteflies choosing Neophytadiene), mean",[9]; dsOBP2-treated whiteflies,46.3333
C=C(C)[C@H]1CC=C(C)CC1 [limonene],effect on settling of whitefly on an otherwise-preferred tomato cultivar,[1],repelled
CC1=CCC2CC1C2(C)C (stereo not drawn) [α‐pinene],IC50,[4],14.6 ± 0.57 µM
same,Ki,[4],10.9 ± 0.43 µM
same,Whitefly preference for plant volatiles versus control (solvent only): number of whiteflies in the volatile arm,[5],23 and 24 and 30 and 26 and 17 and 40 and 21 and 6 and 43
same,impact of volatile on whitefly preference,[5],significantly repelled whiteflies
CC1=CC=C(C(C)C)CC1 [α‐terpinene],IC50,[4],20.4 ± 1.29 µM
same,Ki,[4],15.2 ± 0.96 µM
same,Whitefly preference for plant volatiles versus control (solvent only): number of whiteflies in the volatile arm,[5],9 and 19 and 28 and 37 and 36 and 43
same,impact of volatile on whitefly preference,[5],significantly repelled whiteflies
C=C1CC/C=C(\C)CC[C@@H]2[C@@H]1CC2(C)C [β‐caryophyllene],IC50,[4],14.2 ± 0.72 µM
same,Ki,[4],10.6 ± 0.54 µM
same,Whitefly preference for plant volatiles versus control (solvent only): number of whiteflies in the volatile arm,[5],41 and 20 and 16 and 6 and 19 and 27 and 31 and 10 and 39
same,impact of volatile on whitefly preference,[5],significantly repelled whiteflies
C=C1C=CC(C(C)C)CC1 (stereo not drawn) [β‐phellandrene],IC50,[4],25.4 ± 3.39 µM
same,Ki,[4],19 ± 2.53 µM
same,Whitefly preference for plant volatiles versus control (solvent only): number of whiteflies in the volatile arm,[5],34 and 28 and 40 and 32 and 46 and 20 and 36 and 43 and 14
same,impact of volatile on whitefly preference,[5],significantly repelled whiteflies
C=C1CCC2CC1C2(C)C (stereo not drawn) [β‐pinene],IC50,[4],13.7 ± 0.51 µM
same,Ki,[4],10.2 ± 0.38 µM
same,Whitefly preference for plant volatiles versus control (solvent only): number of whiteflies in the volatile arm,[5],12 and 26 and 37 and 29 and 28 and 24 and 10 and 31 and 15
same,impact of volatile on whitefly preference,[5],significantly repelled whiteflies
Cc1ccc(C(C)C)cc1 [ρ‐cymene],IC50,[4],16.3 ± 0.49 µM
same,Ki,[4],12.1 ± 0.36 µM
same,Whitefly preference for plant volatiles versus control (solvent only): number of whiteflies in the volatile arm,[5],10 and 20 and 17 and 26 and 18 and 25 and 27 and 23
same,impact of volatile on whitefly preference,[5],significantly repelled whiteflies
same,effect on settling of whitefly on an otherwise-preferred tomato cultivar,[1],repelled
phytol,IC50,[4],26.1 ± 1.48 µM
same,Ki,[4],19.5 ± 1.1 µM
same,Whitefly preference for plant volatiles versus control (solvent only): number of whiteflies in the volatile arm,[5],58 and 50 and 60 and 24 and 48 and 27 and 44 and 38
same,impact of volatile on whitefly preference,[5],did not influence whitefly preference
